Results published in patent publication US8772480B2, “Inhibitors of PI3 kinase and/or mTOR” (priority 2009, dated 2014).
Where two headings read alike, the source gives them in different places.

What was measured:
PI3Kα [1] = biological target: T1, PI3Kα (Homo sapiens (Human), UniProt P42336); conditions: read-out: PI3Kα AlphaScreen ® Ki
[2] = test system: phosphorylation of Akt at Serine 473 in U87 MG cells; conditions: read-out: U87Cell IC50
PI3Kα [3] = biological target: T1, PI3Kα; assay: biochemical; conditions: PI3Kα AlphaScreen ® Ki
[4] = biological target: human mutant B-raf (HuBraf V600E) (Homo sapiens (Human), UniProt P15056, V600E); conditions: at 10 μM compound concentration; POC = 100 − percent inhibition
[5] = test system: phosphorylation of Akt at Serine 473 in U87 MG cells; assay: cells; conditions: Homo sapiens, U-87 MG, 2 h, read-out: U87Cell IC50, pAkt (Ser 473), U87 MG cells, two hours with compound

T1 sequence (P42336 whole entry): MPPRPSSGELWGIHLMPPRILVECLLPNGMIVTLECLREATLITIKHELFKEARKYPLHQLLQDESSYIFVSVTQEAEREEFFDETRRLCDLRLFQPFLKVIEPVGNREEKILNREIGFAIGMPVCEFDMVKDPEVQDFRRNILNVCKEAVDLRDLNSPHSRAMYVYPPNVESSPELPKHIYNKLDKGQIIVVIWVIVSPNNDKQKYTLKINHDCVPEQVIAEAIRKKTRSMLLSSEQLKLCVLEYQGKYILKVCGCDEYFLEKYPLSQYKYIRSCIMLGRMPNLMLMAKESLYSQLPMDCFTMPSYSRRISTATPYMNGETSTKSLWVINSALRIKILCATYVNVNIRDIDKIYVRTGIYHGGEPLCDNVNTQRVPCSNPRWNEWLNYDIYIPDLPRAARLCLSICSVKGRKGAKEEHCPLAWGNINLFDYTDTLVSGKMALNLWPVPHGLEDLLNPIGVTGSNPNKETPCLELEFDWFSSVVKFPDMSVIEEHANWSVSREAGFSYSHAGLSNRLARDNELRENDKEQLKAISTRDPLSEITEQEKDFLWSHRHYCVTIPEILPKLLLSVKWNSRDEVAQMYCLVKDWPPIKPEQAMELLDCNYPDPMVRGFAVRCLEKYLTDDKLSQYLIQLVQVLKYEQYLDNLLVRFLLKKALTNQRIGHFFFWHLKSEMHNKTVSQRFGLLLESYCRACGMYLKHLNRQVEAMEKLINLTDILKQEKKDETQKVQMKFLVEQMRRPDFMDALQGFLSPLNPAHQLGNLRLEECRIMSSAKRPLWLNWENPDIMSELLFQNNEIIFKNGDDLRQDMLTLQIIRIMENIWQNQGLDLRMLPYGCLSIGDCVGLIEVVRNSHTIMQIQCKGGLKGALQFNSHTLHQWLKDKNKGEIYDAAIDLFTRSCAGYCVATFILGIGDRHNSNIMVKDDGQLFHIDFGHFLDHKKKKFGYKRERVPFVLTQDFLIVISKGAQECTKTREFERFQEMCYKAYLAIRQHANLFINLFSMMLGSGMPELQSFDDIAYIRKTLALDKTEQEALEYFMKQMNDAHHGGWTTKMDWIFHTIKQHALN
T1 sequence (P27986 whole entry partner): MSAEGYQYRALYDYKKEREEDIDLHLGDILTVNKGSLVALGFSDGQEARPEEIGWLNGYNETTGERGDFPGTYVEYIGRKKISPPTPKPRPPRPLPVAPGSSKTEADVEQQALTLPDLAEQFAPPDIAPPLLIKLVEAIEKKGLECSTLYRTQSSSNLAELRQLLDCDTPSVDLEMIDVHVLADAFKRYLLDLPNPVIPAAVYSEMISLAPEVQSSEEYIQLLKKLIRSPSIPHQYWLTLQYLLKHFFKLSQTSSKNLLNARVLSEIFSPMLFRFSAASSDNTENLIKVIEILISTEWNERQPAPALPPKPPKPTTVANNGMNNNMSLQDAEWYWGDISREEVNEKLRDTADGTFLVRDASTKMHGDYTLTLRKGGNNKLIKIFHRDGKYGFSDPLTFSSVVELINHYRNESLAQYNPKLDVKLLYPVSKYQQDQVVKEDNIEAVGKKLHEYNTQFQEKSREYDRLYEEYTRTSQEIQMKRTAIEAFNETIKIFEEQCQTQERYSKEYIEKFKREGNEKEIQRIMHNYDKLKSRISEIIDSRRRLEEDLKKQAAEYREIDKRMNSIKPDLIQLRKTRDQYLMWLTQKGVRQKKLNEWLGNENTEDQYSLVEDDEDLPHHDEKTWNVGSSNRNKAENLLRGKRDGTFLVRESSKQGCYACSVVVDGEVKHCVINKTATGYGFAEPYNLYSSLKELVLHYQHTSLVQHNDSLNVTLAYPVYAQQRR
human mutant B-raf (HuBraf V600E), sequence (P15056 whole entry V600E): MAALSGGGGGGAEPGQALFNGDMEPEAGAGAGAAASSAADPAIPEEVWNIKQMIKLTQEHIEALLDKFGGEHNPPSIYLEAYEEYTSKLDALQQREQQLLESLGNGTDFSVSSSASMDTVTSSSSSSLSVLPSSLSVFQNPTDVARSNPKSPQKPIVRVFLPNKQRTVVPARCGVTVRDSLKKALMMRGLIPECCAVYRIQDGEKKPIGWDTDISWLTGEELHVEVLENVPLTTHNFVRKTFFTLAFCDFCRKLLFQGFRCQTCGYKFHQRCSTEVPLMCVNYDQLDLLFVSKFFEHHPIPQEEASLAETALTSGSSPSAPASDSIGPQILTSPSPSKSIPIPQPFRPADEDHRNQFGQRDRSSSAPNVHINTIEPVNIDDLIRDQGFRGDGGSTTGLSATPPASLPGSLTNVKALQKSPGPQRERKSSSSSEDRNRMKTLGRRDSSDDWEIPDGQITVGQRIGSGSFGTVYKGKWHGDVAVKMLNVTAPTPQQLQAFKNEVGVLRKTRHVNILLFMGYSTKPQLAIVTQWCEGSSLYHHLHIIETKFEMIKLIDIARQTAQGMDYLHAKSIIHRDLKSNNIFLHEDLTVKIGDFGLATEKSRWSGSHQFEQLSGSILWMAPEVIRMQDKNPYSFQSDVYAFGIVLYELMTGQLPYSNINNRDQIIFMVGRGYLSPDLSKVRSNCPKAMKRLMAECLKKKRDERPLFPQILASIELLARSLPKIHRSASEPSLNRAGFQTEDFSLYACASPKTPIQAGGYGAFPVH

Row | Ki (PI3Kα [1]) [µM] | IC50 ([2]; pAkt (Ser 473), U87 MG cells, two hours with compound) [µM] | Ki (PI3Kα [3]) [µM] | Mutant B-raf HTRF Assay POC Mean n = 2 [4] | IC50 [5] [µM] | Compound | IC50 [2] [µM]
1 | 0.023 | – | – | 94% of Control (POC) | 0.179 | COc1ccc(Nc2ncc(CCO)cc2-c2nc(C)nc3[nH]cnc23)cn1 [Example 75, 2-(6-(6-methoxypyridin-3-ylamino)-5-(2-methyl-9H-purin-6-yl)pyridin-3-yl)ethanol] | –
2 | 0.044 | – | – | 108% of Control (POC) | 0.195 | COc1ccc(Nc2ncc(CO)cc2-c2nc(C)nc3[nH]cnc23)cn1 [Example 76, (6-(6-Methoxypyridin-3-Ylamino)-5-(2-Methyl-9H-Purin-6-yl)Pyridin-3-yl)Methanol] | –
3 | 0.107 | – | – | 96% of Control (POC) | 0.441 | COc1ccc(Nc2ncc(N3CCOCC3)cc2-c2nc(C)nc3[nH]cnc23)cn1 [Example 97] | –
4 | – | – | 0.012 | – | 0.147 | COc1ccc(Nc2ncc([C@@H](O)C(C)(C)C)cc2-c2nc(C)nc3c2ncn3C2CCCCO2)cn1 (stereo partly drawn) [Example 132, (1S)-1-(6-(6-Methoxypyridin-3-Ylamino)-5-(2-Methyl-9-(Tetrahydro-2H-Pyran-2-yl)-9H-Purin-6-yl)Pyridin-3-yl)-2,2-Dimethylpropan-1-ol] | –
5 | – | – | 0.031 | – | 0.278 | COc1ccc(Nc2ncc([C@H](O)C(C)(C)C)cc2-c2nc(C)nc3c2ncn3C2CCCCO2)cn1 (stereo partly drawn) [Example 133, (1R)-1-(6-(6-Methoxypyridin-3-Ylamino)-5-(2-Methyl-9-(Tetrahydro-2H-Pyran-2-yl)-9H-Purin-6-yl)Pyridin-3-yl)-2,2-Dimethylpropan-1-ol] | –

Continued, compound first:

Row | Compound | Ki (PI3Kα [1]) [µM] | IC50 ([2]; pAkt (Ser 473), U87 MG cells, two hours with compound) [µM] | Ki (PI3Kα [3]) [µM] | Mutant B-raf HTRF Assay POC Mean n = 2 [4] | IC50 [5] [µM] | IC50 [2] [µM]
6 | 4-((5-(4-Amino-6-Methyl-1,3,5-Triazin-2-yl)-6-(5-Fluoro-6-Methoxypyridin-3-Ylaamino)Pyridin-3-yl)Methyl)-N-Methyl-N-(2,2,2-Trifluoroethyl)Piperazine-1-Carboxamide [Example 358] | 0.024 | – | – | – | – | 0.121
7 | COc1ccc(Nc2ncc([C@@H](O)C(F)(F)F)cc2-c2nc(C)nc(N)n2)cn1.COc1ccc(Nc2ncc([C@H](O)C(F)(F)F)cc2-c2nc(C)nc(N)n2)cn1 (racemic) [Example 269, (R,S)-1-(5-(4-Amino-6-Methyl-1,3,5-Triazin-2-yl)-6-(6-Methoxypyridin-3-Ylamino)Pyridin-3-yl)-2,2,2-Trifluoroethanol] | 0.033 | 0.089 | – | – | – | –
8 | COc1ncc(Nc2ncc(C(C)CO)cc2-c2nc(C)nc(N)n2)cc1F (single isomer, unassigned) [312 First eluting, 2-(5-(4-Amino-6-methyl-1,3,5-triazin-2-yl)-6-(5-fluoro-6-methoxypyridin-3-ylamino)pyridin-3-yl)propan-1-ol] | – | – | 0.009 | – | – | –
9 | COc1ncc(Nc2ncc(C(C)CO)cc2-c2nc(C)nc(N)n2)cc1F (single isomer, unassigned) [312 Second eluting, 2-(5-(4-Amino-6-methyl-1,3,5-triazin-2-yl)-6-(5-fluoro-6-methoxypyridin-3-ylamino)pyridin-3-yl)propan-1-ol] | – | – | 0.007 | – | – | –
10 | Cc1nc(-c2cc(CO)cnc2Nc2cccc3[nH]ncc23)c2nc[nH]c2n1 [Example 72, (6-(1H-indazol-4-ylamino)-5-(2-methyl-9H-purin-6-yl)pyridin-3-yl)methanol] | 0.033 | – | – | 77% of Control (POC) | 8.53 | –
11 | COc1ccc(Nc2ncc(CN3CCNCC3)cc2-c2nc(C)nc3[nH]cnc23)cn1 [Example 84, N-(6-methoxypyridin-3-yl)-3-(2-methyl-9H-purin-6-yl)-5-(piperazin-1-ylmethyl)pyridin-2-amine] | 0.097 | – | – | 97% of Control (POC) | 1.91 | –
12 | COc1ccc(Nc2ncc(CN3CCN(S(C)(=O)=O)CC3)cc2-c2nc(C)nc3[nH]cnc23)cn1 [Example 85, N-(6-methoxypyridin-3-yl)-3-(2-methyl-9H-purin-6-yl)-5-((4-(methylsulfonyl)piperazin-1-yl)methyl)pyridin-2-amine] | 0.019 | – | – | 90% of Control (POC) | 0.133 | –
13 | COc1ccc(Nc2cnc(Nc3ccc(OC)nc3)c(-c3nc(C)nc4[nH]cnc34)c2)cc1 [Example 90, N5-(4-methoxyphenyl)-N2-(6-methoxypyridin-3-yl)-3-(2-methyl-9H-purin-6-yl)pyridine-2,5-diamine] | 0.009 | – | – | 99% of Control (POC) | 0.129 | –
14 | Cc1nc(N)cc(-c2cnccc2Nc2cccc3[nH]ncc23)n1 [Example 107, N-(3-(6-amino-2-methylpyrimidin-4-yl)pyridin-4-yl)-1H-indazol-4-amine] | 0.359 | – | – | 62% of Control (POC) | 1.54 | –
15 | COc1ccc(Nc2ncc(CN3CCN(C(=O)N(C)C4CC4)CC3)cc2-c2nc(C)nc(N)n2)cn1 [Example 359, 4-((5-(4-Amino-6-Methyl-1,3,5-Triazin-2-yl)-6-(6-Methoxypyridin-3-Ylamino)Pyridin-3-yl)Methyl)-N-Cyclopropyl-N-Methylpiperazine-1-Carboxamide] | – | – | 0.045 | – | 0.09 | –
